Measured values from patent US7094789B2, “5-substituted isoquinoline derivatives” (Asahi Kasei Pharma Corporation, priority 2002, dated 2006).
Counter-ions that a name gives are not always drawn.

How the values were obtained:
[1] = test system: thoracic aorta constricted with phenylephrine; experiment: Vasoconstriction inhibitory action (Test Example 2); parameters: species or system Rats (Wistar); details: result in words; rat thoracic aorta, phenylephrine
From the text: Rats (Wistar, 11-week old) were bleeded to death and laparotomized to take out the thoracic aorta. That aorta was cut into a ring of a length of about 3 mm in a conventional manner (Asano, T., et al., J. Pharmacol. Exp. Ther., 241, pp. 1033–1040 (1987)) and hung in 10-ml organ bath filled with Krebs-Hensright nutrient solution bubbled with a mixed gas of 95% O2 and 5% CO2. One end of the blood vessel was connected to an isometric transducer (FD Pickup TB-912T, Nihon Kohden) and applied with 2.5 g of resting tension, and constriction and relaxation reactions of the aorta were recorded. The aorta was constricted with phenylephrine (1 μM, Sigma) and then added with a test compound (1 μM), and the vasoconstriction inhibitory action thereof was observed. The vasoconstriction inhibitory actions of the test compounds are shown in Table 6 mentioned below as the relaxation ratios, which are based on the vasoconstriction with phenylephrine immediately before the addition of the test compound taken as 100%.

intraocular pressure = experiment: Intraocular pressure reducing action (Test Example 4); format: in vivo, Japanese white rabbit; details: for intraocular pressure reducing activity: result in words, rabbit; for inhibition in vivo at 1 %, 50 µL: Oryctolagus cuniculus, topical, 1% aqueous solution, 50 μl dropped to the left eye, after 2 hours, read-out: Intraocular pressure reducing action (reduction ratio) (%)
Protocol: A Japanese white rabbit having a body weight of about 2 kg was placed in a positioner and naturalized for one week before the experiment. An ophthalmologic local anesthesant (Benoxil) was administered to the left eye, and then intraocular pressure was measured by using a tonometer (Classic 30, Solan). The initial value of the intraocular pressure was measured, then 50 μl of a test compound (1% aqueous solution) was dropped to the left eye, and after 2 hours, the intraocular pressure was measured. The intraocular pressure reducing action of the test compounds is shown in Table 7 mentioned below as ratios (%) of reduction of intraocular pressure based on the initial value of the intraocular pressure.

[2] = molecular target: T1, myosin light chain phosphorylation enzyme (MLCK) (Gallus gallus, UniProt P11799); experiment: Action on myosin light chain phosphorylation enzyme (MLCK) activity; format: biochemical, chicken; details: for inhibition of MLCK: result in words; for IC50: MLCK from chicken gizzard smooth muscle, ELISA, 100 μM ATP, read-out: Myosin light chain phosphorylation enzyme inhibitory action IC50
T1 construct: purified from chicken gizzard smooth muscle by a conventional method; from tissue; host or cells: chicken gizzard smooth muscle
Protocol: A myosin light chain phosphorylation enzyme (MLCK) was purified from chicken gizzard smooth muscle by a conventional method (Yoshida, M., et al., J. Biochem., 99, 1027–1036 (1986)). The myosin regulatory light chain as a substrate was purified from the chicken gizzard smooth muscle by a conventional method (Grand, R. J., et al., Biochem. J., 211, 267–272 (1983)). The MLCK activity was measured by ELISA using pLC1 described in Test Example 1 (Sakurada, K., et al., J. Biochem., 115, 18–21 (1994)). The myosin regulatory light chain was diluted in phosphate-buffered saline (PBS, Sigma) to a concentration of 5.0 µg/ml, added to 96-well Immunoplate (Nunc) in a volume of 100 μl per well and left stand overnight at 4° C. Each well was washed with PBS, and 25 mM Tris/HCl buffer containing 100 μM ATP, 3 mM MgCl2, 1 mM CaCl2, 100 ng/ml of calmodulin (Sigma) and 100 ng/ml of MLCK (pH 7.4, Buffer A) was added to each well and incubated at 30° C. for 10 minutes. In a volume of 100 μl each of 20% aqueous phosphoric acid solution was added to each well to terminate the enzymatic reaction. Each well was washed with 25 mM Tris/HCl buffer (TTBS) containing 0.1% Tween 20, and then 100 μl each of pLC1 described in Test Example 1 was added to each well and incubated at room temperature for 90 minutes.
Each well was washed with TTBS, and then 100 μl of the HRP-labeled rabbit anti-mouse IgG antibodies (Bio-Rad) were added to each well and incubated at room temperature for 90 minutes. Each well was washed with TTBS, and then 25 mM citrate buffer (pH 5.0) containing orthophenylenediamine (Sigma) as a substrate of HRP and aqueous hydrogen peroxide (0.03%) was added in a volume of 100 μl per well and incubated at room temperature for 5 minutes. 50 μl of 4 N sulfuric acid was added to each well to terminate the reaction, and then absorbance was measured by using an immunoplate reader (Bio-Rad).

| SMILES | vasoconstriction inhibitory action [1] | intraocular pressure reducing activity (intraocular pressure) | inhibition of MLCK [2] | also measured |
| --- | --- | --- | --- | --- |
| C=Cc1cncc2cccc(O[C@H]3CC[C@H](N)CC3)c12.Cl [Example 136, Trans-4-[(4-vinyl-5-isoquinolyl)oxy]cyclohexylamine hydrochloride] | significant vasoconstriction inhibitory action | significant intraocular pressure reducing activity |  |  |
| Cl.NCCCN(CCCc1cccc(C(=O)O)c1)S(=O)(=O)c1cccc2cnccc12 [Example 128, N-[(5-Isoquinolyl)sulfonyl]-N-[3-(3-carboxy)phenylpropyl]-1,3-propylenediamine hydrochloride] |  |  | did not inhibit MLCK |  |
| NCCCOc1cccc2c(N)nccc12 [Example 10, 3-[(1-Amino-5-isoquinolyl)oxy]propylamine hydrochloride] |  |  |  | IC50 [2]: > 30 µM |
| Cl.Oc1nccc2c(NC3CCNCC3)cccc12 [Example 115, 4-(1-Hydroxy-5-isoquinolyl)aminopiperidine hydrochloride] |  | significant intraocular pressure reducing activity |  |  |
| C=Cc1cncc2cccc(NC3CCNCC3)c12.Cl [Example 112, 4-(4-Vinyl-5-isoquinolyl)aminopiperidine hydrochloride] | significant vasoconstriction inhibitory action |  | did not inhibit MLCK | inhibition in vivo at 1 %, 50 µL (intraocular pressure): 25% |
| Cl.c1cc(OC2CCNCC2)c2ccncc2c1 [Example 27, 4-[(5-Isoquinolyl)oxy]piperidine hydrochloride] |  |  | did not inhibit MLCK | inhibition in vivo at 1 %, 50 µL (intraocular pressure): 12.5% |
| Cl.Nc1nccc2c(O[C@H]3CC[C@@H](N)CC3)cccc12 [Example 141, Cis-4-[(1-amino-5-isoquinolyl)oxy]cyclohexylamine hydrochloride] |  |  | did not inhibit MLCK |  |
| NCCCN(CCCc1ccccc1)S(=O)(=O)c1cccc2cnccc12 [Example 1, N-[(5-Isoquinolyl)sulfonyl]-N-(3-phenylpropyl)-1,3-propylenediamine hydrochloride] |  |  |  | IC50 [2]: > 50 µM |
| Cl.NCCCN(CCS(=O)(=O)c1ccccc1)S(=O)(=O)c1cccc2c(O)nccc12 [Example 13, N-[(1-Hydroxy-5-isoquinolyl)sulfonyl]-N-[2-(phenylsulfonyl)ethyl]-1,3-propylenediamine hydrochloride] | significant vasoconstriction inhibitory action |  |  |  |
| N[C@H]1CC[C@H](Nc2cccc3cnccc23)CC1 [Example 24, Trans-N-(5-isoquinolyl)-1,4-cyclohexanediamine hydrochloride] |  |  |  | inhibition in vivo at 1 %, 50 µL (intraocular pressure): 35.7% |
| NCCN(CCS(=O)(=O)c1ccccc1)S(=O)(=O)c1cccc2cnccc12 [Example 7, N-[(5-Isoquinolyl)sulfonyl]-N-[2-(phenylsulfonyl)ethyl]ethylenediamine hydrochloride] |  |  |  | IC50 [2]: > 50 µM; inhibition in vivo at 1 %, 50 µL (intraocular pressure): 30.1% |
| Cc1cncc2cccc(N[C@H]3CC[C@@H](N)CC3)c12.Cl [Example 120, Cis-N-(4-methyl-5-isoquinolyl)-1,4-cyclohexanediamine hydrochloride] | significant vasoconstriction inhibitory action | significant intraocular pressure reducing activity | did not inhibit MLCK |  |
| Cl.N#Cc1cncc2cccc(O[C@H]3CC[C@H](N)CC3)c12 [Example 134, Trans-4-[(4-cyano-5-isoquinolyl)oxy]cyclohexylamine hydrochloride] | significant vasoconstriction inhibitory action | significant intraocular pressure reducing activity |  |  |
| Cc1cncc2cccc(OC3CCNCC3)c12.Cl [Example 139, 4-[(4-Methyl-5-isoquinolyl)oxy]piperidine hydrochloride] | significant vasoconstriction inhibitory action | significant intraocular pressure reducing activity |  |  |
| Cl.NCCCN(CCCc1ccccc1)S(=O)(=O)c1cccc2c(N)nccc12 [Example 8, N-[(1-Amino-5-isoquinolyl)sulfonyl]-N-(3-phenylpropyl)-1,3-propylenediamine hydrochloride] | significant vasoconstriction inhibitory action |  |  | IC50 [2]: > 50 µM |
| Cl.OCCCN1CCC(Nc2cccc3cnccc23)CC1 [Example 145, 1-(3-Hydroxypropyl)-4-(5-isoquinolyl)aminopiperidine hydrochloride] |  | significant intraocular pressure reducing activity |  |  |
| Cl.Fc1cncc2cccc(NC3CCNCC3)c12 [Example 104, 4-(4-Fluoro-5-isoquinolyl)aminopiperidine hydrochloride] |  |  | did not inhibit MLCK | inhibition in vivo at 1 %, 50 µL (intraocular pressure): 18.8% |
| Cl.NC1CCC(Nc2cccc3cncc(Br)c23)CC1 (stereo not drawn) [Example 107, N-(4-Bromo-5-isoquinolyl)-1,4-cyclohexanediamine hydrochloride] |  | significant intraocular pressure reducing activity |  |  |
| CSc1cncc2cccc(NC3CCNCC3)c12.Cl [Example 105, 4-(4-Methylthio-5-isoquinolyl)aminopiperidine hydrochloride] | significant vasoconstriction inhibitory action |  |  | inhibition in vivo at 1 %, 50 µL (intraocular pressure): 18.8% |
| COC(=O)c1ccc(CCCN(CCCN)S(=O)(=O)c2cccc3cnccc23)cc1.Cl [Example 130, N-[(5-Isoquinolyl)sulfonyl]-N-[3-(4-methoxycarbonyl)phenylpropyl]-1,3-propylenediamine hydrochloride] |  |  | did not inhibit MLCK |  |
| Cc1cncc2cccc(S(=O)(=O)N(CCCN)CCCc3ccccc3)c12.Cl [Example 5, N-[(4-Methyl-5-isoquinolyl)sulfonyl]-N-(3-phenylpropyl)-1,3-propylenediamine hydrochloride] | significant vasoconstriction inhibitory action |  |  |  |
| CCc1cncc2cccc(NC3CCNCC3)c12.Cl [Example 113, 4-(4-Ethyl-5-isoquinolyl)aminopiperidine hydrochloride] | significant vasoconstriction inhibitory action | significant intraocular pressure reducing activity |  |  |
| Cl.N[C@H]1CC[C@H](Oc2cccc3cnccc23)CC1 [Example 135, Trans-4-[(5-isoquinolyl)oxy]cyclohexylamine hydrochloride] |  | significant intraocular pressure reducing activity |  |  |
